ChEMBL document CHEMBL1145452, “In vitro structure-activity relationship and in vivo characterization of 1-(aryl)-3-(4-(amino)benzyl)urea transient receptor potential vanilloid 1 antagonists” (J Med Chem, 2007)
In brackets after ≈: the same amount, converted by molar mass.

Experiments:
[1] = target: Transient receptor potential cation channel subfamily V member 1 (Homo sapiens, UniProt Q8NER1); assay: Antagonist activity at human TRPV1 receptor by calcium influx assay; assay type: functional
Liver microsomes [2] = assay: Stability in rat liver microsomes at 0.5 uM after 30 mins; assay type: ADME, Microsome; conditions: 0.5 h
Liver microsomes [3] = assay: Stability in human liver microsomes at 0.5 uM after 30 mins; assay type: ADME, Microsome; conditions: 0.5 h
[4] = Volume of distribution in rat at 10 umol/kg; assay type: ADME, organism-based; conditions: in vivo, read-out: Vbeta
Rattus norvegicus = assay: Effect on CFA-induced thermal hyperalgesia in po dosed rat; assay type: functional
[5] = Plasma clearance in rat at 10 umol/kg; assay type: ADME, organism-based
[6] = Half life in rat at 10 umol/kg; assay type: ADME, organism-based; conditions: in vivo
[7] = Cmax in rat at 10 umol/kg, po; assay type: ADME, organism-based; design: dose 10 umol/kg, route oral; conditions: in vivo
[8] = Oral bioavailability in rat at 10 umol/kg, po; assay type: ADME, organism-based; conditions: in vivo
[9] = Oral bioavailability in dog; assay type: ADME, organism-based, Canis lupus familiaris; conditions: in vivo
[10] = Protein binding in rat plasma; assay type: ADME, cell-free; conditions: read-out: PPB (converted)
Adenosine receptor A3 = target: T1, Adenosine receptor A3 (Homo sapiens, UniProt P0DMS8); assay: Binding affinity to adenosine A3 receptor
T1 sequence (P0DMS8 whole entry): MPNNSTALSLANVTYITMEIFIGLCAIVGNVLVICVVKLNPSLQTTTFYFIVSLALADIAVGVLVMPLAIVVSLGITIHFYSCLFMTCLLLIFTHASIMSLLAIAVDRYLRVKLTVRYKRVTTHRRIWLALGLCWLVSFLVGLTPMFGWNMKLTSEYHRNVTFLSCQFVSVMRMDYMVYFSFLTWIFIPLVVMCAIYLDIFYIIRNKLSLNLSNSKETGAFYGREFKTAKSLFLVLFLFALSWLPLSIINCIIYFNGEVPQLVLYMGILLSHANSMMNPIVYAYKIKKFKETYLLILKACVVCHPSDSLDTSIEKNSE

Translocator protein = Translocator protein (Homo sapiens, UniProt P30536); assay: Binding affinity to peripheral benzodiazepine receptor
[11] = Binding affinity to sodium channel; design: species or system Homo sapiens
[12] = Aqueous solubility at pH 2.0; assay type: physicochemical
[13] = Aqueous solubility at pH 6.8; assay type: physicochemical; conditions: buffer
Homo sapiens = species on record: Homo sapiens; assay: Protein binding in human plasma; conditions: read-out: PPB (converted)

Sequence of Transient receptor potential cation channel subfamily V member 1 (Q8NER1 whole entry): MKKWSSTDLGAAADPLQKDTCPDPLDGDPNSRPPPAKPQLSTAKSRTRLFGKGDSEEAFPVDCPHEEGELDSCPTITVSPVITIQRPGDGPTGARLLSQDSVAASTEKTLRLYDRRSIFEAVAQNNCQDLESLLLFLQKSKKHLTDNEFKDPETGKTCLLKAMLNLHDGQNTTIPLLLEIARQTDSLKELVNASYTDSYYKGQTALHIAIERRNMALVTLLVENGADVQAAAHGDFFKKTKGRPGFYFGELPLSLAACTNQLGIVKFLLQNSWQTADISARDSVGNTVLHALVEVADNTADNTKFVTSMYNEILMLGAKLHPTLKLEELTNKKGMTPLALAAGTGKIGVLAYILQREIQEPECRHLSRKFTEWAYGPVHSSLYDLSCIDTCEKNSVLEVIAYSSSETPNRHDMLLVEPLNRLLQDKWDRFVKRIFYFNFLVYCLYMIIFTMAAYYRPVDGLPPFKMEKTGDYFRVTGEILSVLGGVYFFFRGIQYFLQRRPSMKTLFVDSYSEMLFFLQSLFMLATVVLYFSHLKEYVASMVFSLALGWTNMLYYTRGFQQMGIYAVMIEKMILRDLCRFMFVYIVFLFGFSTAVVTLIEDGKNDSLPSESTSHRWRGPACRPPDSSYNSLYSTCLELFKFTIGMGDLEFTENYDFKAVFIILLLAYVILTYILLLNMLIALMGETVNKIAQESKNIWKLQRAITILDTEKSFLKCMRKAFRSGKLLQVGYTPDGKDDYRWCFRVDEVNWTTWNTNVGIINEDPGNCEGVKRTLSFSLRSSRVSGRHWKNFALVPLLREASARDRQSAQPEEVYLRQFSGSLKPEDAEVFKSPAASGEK
Sequence of Translocator protein (P30536 whole entry): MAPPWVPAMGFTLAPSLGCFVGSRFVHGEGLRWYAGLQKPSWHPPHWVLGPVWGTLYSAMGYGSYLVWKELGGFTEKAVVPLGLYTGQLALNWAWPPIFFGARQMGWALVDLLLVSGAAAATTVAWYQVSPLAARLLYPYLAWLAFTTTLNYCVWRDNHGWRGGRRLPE

IC50 [1] [nM] | SMILES | further results
2.1 | O=C(NCc1ccc(C(F)(F)F)cc1)Nc1cccc2cnccc12 | Stability (Liver microsomes [2]): 383 pmol/min/mg; Stability (Liver microsomes [3]): 135 pmol/min/mg
7.3 | O=C(NCc1ccc(N2CCCCC2)cc1)Nc1cccc2cnccc12 | –
4.7 | O=C(NCc1ccc(N2CCCCCCC2)cc1)Nc1cccc2cnccc12 | –
9.3 | CC1CCN(c2ccc(CNC(=O)Nc3cccc4cnccc34)cc2)CC1 | –
91 | O=C(NCc1ccc(N2CCOCC2)cc1)Nc1cccc2cnccc12 | –
3.3 | O=C(NCc1ccc(N2[C@@H]3CCC[C@H]2CC3)cc1)Nc1cccc2cnccc12 | Stability (Liver microsomes [2]): 247 pmol/min/mg; Stability (Liver microsomes [3]): 818 pmol/min/mg
43.2 | O=C(NCc1ccc(N2[C@@H]3CCC[C@H]2CC3)c(Br)c1)Nc1cccc2[nH]ncc12 | –
19.8 | Cc1cc(CNC(=O)Nc2cccc3[nH]ncc23)ccc1N1[C@@H]2CCC[C@H]1CC2 | –
19 | Cn1ncc2c(NC(=O)NCc3ccc(N4[C@@H]5CCC[C@H]4CC5)cc3Cc3ccccc3)cccc21 | –
35.3 | CC(C)c1cc(N2[C@@H]3CCC[C@H]2CC3)ccc1CNC(=O)Nc1cccc2[nH]ncc12 | –
2.8 | O=C(NCc1ccc(N2CCCCCC2)c(F)c1)Nc1cccc2cnccc12 | Stability (Liver microsomes [2]): 366 pmol/min/mg; Stability (Liver microsomes [3]): 1223 pmol/min/mg; Vd [4]: 1.8 L/kg; ED50 (Rattus norvegicus): 30 µmol/kg; clearance [5]: 30 mL/min/kg; half-life [6]: 0.69 h; Cmax [7]: 150 ng/mL; bioavailability [8]: 10%; bioavailability [9]: 18%
258 | CC1CN(c2ccc(CNC(=O)Nc3cccc4cnccc34)cc2)CC(C)O1 (stereo not drawn) | –
157 | CN(C)c1ccc(CNC(=O)Nc2cccc3cnccc23)cc1 | –
3.3 | O=C(NCc1ccc(N2CCCCCC2)cc1)Nc1cccc2cnccc12 | –
5.2 | O=C(NCc1ccc(N2CCCCCC2)cc1Cl)Nc1cccc2cnccc12 | –
3.8 | Cc1cc2c(NC(=O)NCc3ccc(N4CCCCCC4)cc3)cccc2cn1 | –
29 | Cc1cc(N2[C@@H]3CCC[C@H]2CC3)ccc1CNC(=O)Nc1cccc2[nH]ncc12 | –

Further lines, the compound ahead of its results:

SMILES | IC50 [1] [nM] | further results
Cc1cc2c(NC(=O)NCc3ccc(N4Cc5ccccc5C4)c(F)c3)cccc2cn1 | 7360 | –
O=C(NCc1ccc(N2CCCCCC2)cc1Cl)Nc1cccc2[nH]ncc12 | 190 | –
O=C(NCc1ccc(N2CCCCCC2)cc1C(F)(F)F)Nc1cccc2[nH]ncc12 | 133 | –
O=C(NCc1ccc(N2CCOCC2)cc1)Nc1cccc2cnc(Cl)cc12 | 156 | –
O=C(NCc1cc(F)c(N2[C@@H]3CC[C@H]2CC2(C3)OCCO2)cc1F)Nc1cccc2[nH]ncc12 | 82 | –
O=C1C[C@H]2CC[C@@H](C1)N2c1cc(F)c(CNC(=O)Nc2cccc3[nH]ncc23)cc1F | 157 | –
O=C(NCc1ccc(N2[C@@H]3CCC[C@H]2CC3)c(C(F)(F)F)c1)Nc1cccc2[nH]ncc12 | 26.9 | Stability (Liver microsomes [2]): 315 pmol/min/mg; Stability (Liver microsomes [3]): 445 pmol/min/mg; Vd [4]: 2.1 L/kg; ED50 (Rattus norvegicus): 20 µmol/kg; clearance [5]: 16.7 mL/min/kg; half-life [6]: 1.4 h; Cmax [7]: 240 ng/mL; bioavailability [8]: 21%; bioavailability [9]: 46%; fraction unbound [10]: 0.014; IC50 (Adenosine receptor A3): > 5000 nM; IC50 (Translocator protein): > 5000 nM; IC50 [11]: > 5000 nM; solubility [12]: 14 µg/mL (≈ 31.6 µM); solubility [13]: < 0.001 µg/mL; fraction unbound (Homo sapiens): 0.03
O=C(NCc1ccc(N2[C@@H]3CCC[C@H]2CC3)c(F)c1)Nc1cccc2[nH]ncc12 | 14.8 | Stability (Liver microsomes [2]): 394 pmol/min/mg; Stability (Liver microsomes [3]): 516 pmol/min/mg
O=C(NCc1ccc(N2CCCCCC2)c(F)c1)Nc1cccc2[nH]ncc12 | 14.2 | –
O=C(NCc1ccc(N2CCCCCC2)cc1C(F)(F)F)Nc1cccc2cnccc12 | 5.7 | –
O=C(NCc1ccc(N2[C@@H]3CCC[C@H]2CC3)cc1)Nc1cccc2[nH]ncc12 | 18 | –
O=C(NCc1ccc(N2[C@@H]3CCC[C@H]2CC3)cc1C(F)(F)F)Nc1cccc2[nH]ncc12 | 54.5 | –
CC(C)(C)CCc1cc(N2[C@@H]3CCC[C@H]2CC3)ccc1CNC(=O)Nc1cccc2[nH]ncc12 | 10.3 | –
O=C(NCc1cc(F)c(N2CCOCC2)c(F)c1)Nc1cccc2cnccc12 | 9.3 | –
Nc1cc2c(NC(=O)NCc3ccc(N4CCCCCC4)cc3)cccc2cn1 | 9.8 | –
CCN1CCc2cc(CNC(=O)Nc3cccc4[nH]ncc34)ccc21 | 285 | –
Cn1c2ccccc2c2cc(CNC(=O)Nc3cccc4[nH]ncc34)ccc21 | 902 | –
O=C(NCc1cc(F)c(N2[C@@H]3CCC[C@H]2CC3)c(F)c1)Nc1cccc2[nH]ncc12 | 12.6 | –
O=C(NCc1cc(F)c(N2CCCCCC2)c(F)c1)Nc1cccc2[nH]ncc12 | 39.3 | –
O=C(NCc1ccc(N2[C@@H]3CCC[C@H]2CC3)cc1Cl)Nc1cccc2[nH]ncc12 | 58.8 | –
O=C(NCc1ccc(N2[C@@H]3CCC[C@H]2CC3)c(Cl)c1)Nc1cccc2[nH]ncc12 | 20.4 | –
O=C(NCc1ccc(N2CCCCCC2)c(C(F)(F)F)c1)Nc1cccc2cnccc12 | 4.6 | Stability (Liver microsomes [2]): 689 pmol/min/mg; Stability (Liver microsomes [3]): 643 pmol/min/mg
O=C(NCc1ccc(N2[C@@H]3CCC[C@H]2CC3)c(F)c1F)Nc1cccc2[nH]ncc12 | 25.5 | –
